The values that follow come from US8450373B2, “Alpha ketoamide compounds as cysteine protease inhibitors” (Virobay, Inc., priority 2005, dated 2013).

Molecules are shown by their SMILES.

On to `CC[C@H](NC(=O)[C@H](CCS(C)(=O)=O)N[C@@H](c1ccc(F)cc1)C(F)(F)F)C(=O)C(=O)NC1CC1` [Table I Cpd. 78, N-cyclopropyl-3S-{4-methanesulfonyl-2S-[2,2,2-trifluoro-1S-(4-fluoro-phenyl)-ethylamino]-butyrylamino}-2-oxo-pentanamide], for which the melting point (usually the temperature of the solid-liquid transition) lay in the range of 152.5 to 153.5 °C.
